Data from patent US8497278B2, “Imidazo[1,2-a]pyridine compounds” (priority 2008, dated 2013).

Experiments:
[1] = biological target: T1, α5 subtype containing GABA-A receptors (Homo sapiens, UniProt P18507+P31644); assay: Two-electrode voltage clamp electrophysiology in Xenopus oocytes, potentiation of GABA EC20 response, α5; format: cell-based; conditions: 100 nM compound; for activation at 0.1 µM: read-out: Percentage of potentiation alpha5
T1 construct: expressed in transfected cells; host or cells: Xenopus laevis oocytes, cRNA injected
Protocol: (§1) Electrophysiology protocol: Oocytes were prepared from adult female Xenopus laevis frogs. cRNA encoding human α1, α2, α3, α5, β3 and γ2L GABAA receptor subunits was injected into the cytoplasm of stage 5 or 6 oocytes using the Robocyte Robot (Multi Channel Systems, Reutlingen, Germany). Two-electrode voltage clamp recordings were made in 96-well plates using the Robocyte Robot. Oocytes were impaled using recording heads with two glass electrodes containing 1.5 M potassium acetate and 0.5 M KCl and held at a membrane potential of −80 mV. Oocytes were continually perfused with a ND96 solution (96 mM NaCl, 2 mM KCl, 0.1 mM CaCl2, and 5 mM HEPES, pH 7.5) using a Gilson 222 XL Liquid Handler and Gilson Minipuls 3 Peristaltic Pump (Gilson Medical Electronics, Middleton, Wis., USA). The protocol consisted of three 20-s applications of GABA that gave a 20% of the maximum response (EC20: 60 μM) to allow for headroom to determine a baseline GABA response. To assess the potentiation, oocytes were first exposed to a single 1 μM chlordiazepoxide (CDP) as a potentiation standard. Oocytes with insufficient expression levels (currents below threshold) or insufficient γ2L subunit incorporation (judged by rapid desensitization upon GABA application, or by insufficient potentiation by CDP) were not included in analysis. Following this control application, a given oocyte was exposed to test compounds at 100 nM concentrations. Only one concentration of one compound was tested per oocyte. […] One skilled in the art will recognize that subtypes contribute to the effects of GABA-A modulators. Such that compounds favoring different subtypes can have different therapeutic effects. The magnitude of modulation, for example, partial modulators can influence the effects in vivo. “++” indicates a greater modulation that “+” so that at any given subtype “++” inducates a greater amount of modulation for that subtype. In some embodiments, modulation favoring alpha 1 relative to alpha2 and/or alpha 3 can have sedative hypnotic effects. In other embodiments, compounds with reduced selectivity of alpha 1 can express anxiolytic effects with less sedation. Compounds with selectivity for alpha 5 can have memory/cognition enhancing effects.

[2] = system: central benzodiazepine receptors; assay: Central benzodiazepine receptor binding (test of Speth et al.); conditions: 1000 nM of the compound
How it was run: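 Radioligand binding by the Speth et al. method. Specific binding is total minus nonspecific binding, the latter measured with excess unlabelled ligand. Compounds screened at 1.0E-09, 1.0E-07 and 1.0E-05 M in single determination; values given as percent inhibition at 1000 nM compound.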

[3] = biological target: T2, α2 subtype containing GABA-A receptors (Homo sapiens, UniProt P18507+P47869); assay: Two-electrode voltage clamp electrophysiology in Xenopus oocytes, potentiation of GABA EC20 response, α2; format: cell-based; conditions: 100 nM compound; for activation at 0.1 µM: read-out: Percentage of potentiation alpha2
T2 construct: expressed in transfected cells; host or cells: Xenopus laevis oocytes, cRNA injected
How it was run: (§2)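 Human α1/α2/α3/α5 with β3 and γ2L subunits expressed in Xenopus oocytes from injected cRNA, clamped at −80 mV in ND96 (pH 7.5). After baseline responses to GABA at EC20 (60 μM), 1 μM chlordiazepoxide served as potentiation standard, then test compound at 100 nM; one compound per oocyte.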

[4] = biological target: T3, α1 subtype containing GABA-A receptors (Homo sapiens, UniProt P14867+P18507); assay: Two-electrode voltage clamp electrophysiology in Xenopus oocytes, potentiation of GABA EC20 response, α1; format: cell-based; conditions: 100 nM compound; for activation at 0.1 µM: read-out: Percentage of potentiation alpha1
T3 construct: expressed in transfected cells; host or cells: Xenopus laevis oocytes, cRNA injected
How it was run: as §2

[5] = biological target: T4, α3 subtype containing GABA-A receptors (Homo sapiens, UniProt P18507+P34903); assay: Two-electrode voltage clamp electrophysiology in Xenopus oocytes, potentiation of GABA EC20 response, α3; format: cell-based; conditions: 100 nM compound; for activation at 0.1 µM: read-out: Percentage of potentiation alpha3
T4 construct: expressed in transfected cells; host or cells: Xenopus laevis oocytes, cRNA injected
Protocol: as §1

T3 sequence (P14867 28-456): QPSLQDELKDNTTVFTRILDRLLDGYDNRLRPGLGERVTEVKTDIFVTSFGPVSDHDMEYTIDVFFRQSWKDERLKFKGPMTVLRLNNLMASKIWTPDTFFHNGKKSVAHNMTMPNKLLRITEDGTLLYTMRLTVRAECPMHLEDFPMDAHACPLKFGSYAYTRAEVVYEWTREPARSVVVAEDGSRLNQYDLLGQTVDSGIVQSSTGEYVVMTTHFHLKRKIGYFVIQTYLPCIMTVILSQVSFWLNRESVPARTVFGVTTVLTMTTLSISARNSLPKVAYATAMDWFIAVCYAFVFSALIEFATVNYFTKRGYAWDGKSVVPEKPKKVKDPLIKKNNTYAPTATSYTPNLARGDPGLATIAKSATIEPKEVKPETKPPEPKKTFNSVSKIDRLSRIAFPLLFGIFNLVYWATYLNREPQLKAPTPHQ
T3 sequence (P28472 26-473 partner): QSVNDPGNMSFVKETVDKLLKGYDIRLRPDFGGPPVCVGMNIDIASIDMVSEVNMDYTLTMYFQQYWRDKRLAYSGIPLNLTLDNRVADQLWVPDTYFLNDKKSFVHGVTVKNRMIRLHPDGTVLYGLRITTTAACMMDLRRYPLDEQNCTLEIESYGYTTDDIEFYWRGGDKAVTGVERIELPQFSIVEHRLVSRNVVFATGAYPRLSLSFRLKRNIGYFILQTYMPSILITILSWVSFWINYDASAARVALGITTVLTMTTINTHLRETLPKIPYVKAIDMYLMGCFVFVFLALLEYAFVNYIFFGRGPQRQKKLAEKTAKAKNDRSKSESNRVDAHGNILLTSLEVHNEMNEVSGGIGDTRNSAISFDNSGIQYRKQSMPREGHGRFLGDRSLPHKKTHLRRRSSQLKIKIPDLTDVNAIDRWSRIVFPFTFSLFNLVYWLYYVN
T3 sequence (P18507 40-475): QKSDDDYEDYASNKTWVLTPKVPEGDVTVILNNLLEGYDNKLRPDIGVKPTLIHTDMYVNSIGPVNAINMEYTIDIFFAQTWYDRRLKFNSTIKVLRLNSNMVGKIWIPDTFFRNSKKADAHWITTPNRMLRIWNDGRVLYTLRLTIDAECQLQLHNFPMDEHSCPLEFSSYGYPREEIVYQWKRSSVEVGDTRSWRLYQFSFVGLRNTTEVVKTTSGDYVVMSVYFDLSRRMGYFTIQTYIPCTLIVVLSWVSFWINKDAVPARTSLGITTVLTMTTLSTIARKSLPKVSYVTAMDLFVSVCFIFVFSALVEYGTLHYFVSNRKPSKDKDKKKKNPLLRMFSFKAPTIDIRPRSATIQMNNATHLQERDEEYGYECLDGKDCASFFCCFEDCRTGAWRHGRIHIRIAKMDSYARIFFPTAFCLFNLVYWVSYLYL
T4 sequence (P34903 29-492): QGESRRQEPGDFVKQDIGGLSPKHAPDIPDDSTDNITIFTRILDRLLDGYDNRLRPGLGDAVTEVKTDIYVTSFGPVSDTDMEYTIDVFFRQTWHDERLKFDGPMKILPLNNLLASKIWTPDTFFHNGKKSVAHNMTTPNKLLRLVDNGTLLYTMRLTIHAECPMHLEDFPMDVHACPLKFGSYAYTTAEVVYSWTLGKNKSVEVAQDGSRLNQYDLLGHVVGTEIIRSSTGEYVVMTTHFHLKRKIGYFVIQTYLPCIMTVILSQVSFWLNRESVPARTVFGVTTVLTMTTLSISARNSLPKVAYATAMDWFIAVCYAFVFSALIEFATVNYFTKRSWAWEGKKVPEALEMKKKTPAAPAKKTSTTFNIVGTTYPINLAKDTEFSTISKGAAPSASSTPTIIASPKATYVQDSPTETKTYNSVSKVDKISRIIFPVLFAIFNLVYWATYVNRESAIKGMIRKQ
T4 sequence (P28472 26-473 partner): as the sequence (P28472 26-473 partner) above
T4 sequence (P18507 40-475): as the sequence (P18507 40-475) above
T1 sequence (P31644 32-462): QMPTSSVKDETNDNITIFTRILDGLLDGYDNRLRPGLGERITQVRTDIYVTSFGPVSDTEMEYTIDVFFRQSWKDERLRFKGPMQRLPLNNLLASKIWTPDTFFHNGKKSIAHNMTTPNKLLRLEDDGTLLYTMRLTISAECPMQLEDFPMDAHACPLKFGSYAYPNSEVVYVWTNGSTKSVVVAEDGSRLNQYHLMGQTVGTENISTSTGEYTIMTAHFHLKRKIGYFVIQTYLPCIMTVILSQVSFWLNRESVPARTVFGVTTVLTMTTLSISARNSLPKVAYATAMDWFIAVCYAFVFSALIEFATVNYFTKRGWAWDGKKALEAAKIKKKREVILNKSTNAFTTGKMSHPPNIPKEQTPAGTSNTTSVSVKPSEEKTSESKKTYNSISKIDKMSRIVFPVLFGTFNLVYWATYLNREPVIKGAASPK
T1 sequence (P28472 26-473 partner): as the sequence (P28472 26-473 partner) above
T1 sequence (P18507 40-475): as the sequence (P18507 40-475) above
T2 sequence (P47869 29-451): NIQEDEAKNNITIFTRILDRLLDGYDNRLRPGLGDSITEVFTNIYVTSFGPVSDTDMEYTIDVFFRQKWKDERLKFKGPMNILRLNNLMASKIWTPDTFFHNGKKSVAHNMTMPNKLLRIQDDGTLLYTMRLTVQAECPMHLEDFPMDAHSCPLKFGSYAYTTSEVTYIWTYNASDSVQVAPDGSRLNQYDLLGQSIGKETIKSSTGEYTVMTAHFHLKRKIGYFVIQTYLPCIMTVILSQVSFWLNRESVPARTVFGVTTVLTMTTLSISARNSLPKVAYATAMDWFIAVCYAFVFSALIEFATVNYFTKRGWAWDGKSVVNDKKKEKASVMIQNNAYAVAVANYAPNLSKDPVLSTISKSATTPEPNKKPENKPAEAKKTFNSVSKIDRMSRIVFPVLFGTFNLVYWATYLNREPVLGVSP
T2 sequence (P28472 26-473 partner): as the sequence (P28472 26-473 partner) above
T2 sequence (P18507 40-475): as the sequence (P18507 40-475) above

`O=C1C=C(N2CCC(O)C2)CN1Cc1c(-c2ccc(Cl)cc2)nc2ccccn12` (centres unmarked) [Compound 240, 1-((2-(4-chlorophenyl)imidazo[1,2-a]pyridin-3-yl)methyl)-4-(3-hydroxypyrrolidin-1-yl)-1H-pyrrol-2(5H)-one] was tested, and the activation at 0.1 µM [1] was -10 to 10%, the “% Inhibition at 1000 nM for CBZD” value [2] was “++ (percentage of inhibition of central BZD site binding is greater than 80% in the presence of 1000 nM of the compound)” and the activation at 0.1 µM [3] was 10 to 50%. For the same molecule, the activation at 0.1 µM [4] was no less than 50% and the activation at 0.1 µM [5] was -10 to 10%.

With `CN(C)CCNC1=CC(=O)N(Cc2c(-c3ccc(Br)cc3)nc3ccccn23)C1` [Compound 242, 1-((2-(4-bromophenyl)imidazo[1,2-a]pyridin-3-yl)methyl)-4-(2-(dimethylamino)ethylamino)-1H-pyrrol-2(5H)-one] the “% Inhibition at 1000 nM for CBZD” value [2] was “++ (percentage of inhibition of central BZD site binding is greater than 80% in the presence of 1000 nM of the compound)”, the activation at 0.1 µM [3] was 10 to 50% and the activation at 0.1 µM [4] was 10 to 50%. It also gave an activation at 0.1 µM [5] of -10 to 10%.

For `Fc1ccc(-c2nc3ccc(F)cn3c2Cn2ccnn2)cc1` [Compound 61, 3-((1H-1,2,3-triazol-1-yl)methyl)-6-fluoro-2-(4-fluorophenyl)H-imidazo[1,2-a]pyridine], the “% Inhibition at 1000 nM for CBZD” value [2] was “++ (percentage of inhibition of central BZD site binding is greater than 80% in the presence of 1000 nM of the compound)”, the “Percentage of potentiation alpha2” value [3] was “+ (percentage of potentiation is greater than or equal to 10% but less than 50% in the presence of 100 nM of the compound)” and the “Percentage of potentiation alpha1” value [4] was “+ (percentage of potentiation is greater than or equal to 10% but less than 50% in the presence of 100 nM of the compound)”. The “Percentage of potentiation alpha3” value [5] was “++ (percentage of potentiation is greater than or equal to 50% in the presence of 100 nM of the compound)”.

With `CN1CC[C@@H](Oc2ccnc(NCc3c(-c4ccc(F)cc4)nc4ccc(Cl)cn34)n2)C1` [Compound 183, (R)—N-((6-chloro-2-(4-fluorophenyl)imidazo[1,2-a]pyridin-3-yl)methyl)-4-(1-methylpyrrolidin-3-yloxy)pyrimidin-2-amine] the “% Inhibition at 1000 nM for CBZD” value [2] was “++ (percentage of inhibition of central BZD site binding is greater than 80% in the presence of 1000 nM of the compound)”, the activation at 0.1 µM [3] was no less than 50% and the activation at 0.1 µM [4] was no less than 50%. The activation at 0.1 µM [5] was -10 to 10%.

Work on `NNC(=O)c1nc(Cc2c(-c3ccc(Cl)cc3)nc3ccc(F)cn23)no1` [Compound 216, 3-((2-(4-chlorophenyl)-6-fluoroimidazo[1,2-a]pyridin-3-yl)methyl)-1,2,4-oxadiazole-5-carbohydrazide] yielded an activation at 0.1 µM [1] of -10 to 10%, an activation at 0.1 µM [3] of no less than 50% and an activation at 0.1 µM [4] of 10 to 50%. For the same molecule, the activation at 0.1 µM [5] was 10 to 50%.

For `COC1=CC(=O)N(Cc2c(-c3ccc(Cl)cc3)nc3ccc(Cl)cn23)C1` [Compound 114, 1-((6-chloro-2-(4-chlorophenyl)H-imidazo[1,2-a]pyridin-3-yl)methyl)-4-methoxy-1H-pyrrol-2(5H)-one], the “Percentage of potentiation alpha5” value [1] was 0 (percentage of potentiation is between about 10% to about −10%), the “Percentage of potentiation alpha2” value [3] was “+ (percentage of potentiation is greater than or equal to 10% but less than 50% in the presence of 100 nM of the compound)” and the “Percentage of potentiation alpha1” value [4] was “++ (percentage of potentiation is greater than or equal to 50% in the presence of 100 nM of the compound)”. For the same molecule, the “Percentage of potentiation alpha3” value [5] was “+ (percentage of potentiation is greater than or equal to 10% but less than 50% in the presence of 100 nM of the compound)”.

With `CNC(=O)c1nc(Cc2c(-c3ccc(F)cc3)nc3ccc(F)cn23)no1` [Compound 220, 3-((2-(4-fluorophenyl)-6-fluoroimidazo[1,2-a]pyridin-3-yl)methyl)-1,2,4-oxadiazole-5-N-methyl-carboxamide] the “Percentage of potentiation alpha5” value [1] was 0 (percentage of potentiation is between about 10% to about −10%), the “Percentage of potentiation alpha2” value [3] was “+ (percentage of potentiation is greater than or equal to 10% but less than 50% in the presence of 100 nM of the compound)” and the “Percentage of potentiation alpha1” value [4] was 0 (percentage of potentiation is between about 10% to about −10%). For the same molecule, the “Percentage of potentiation alpha3” value [5] was 0 (percentage of potentiation is between about 10% to about −10%).
